The values below come from US20230000955A1, “THROMBOMODULIN FUNCTIONAL DOMAINS FOR USE IN PROMOTING OSTEOBLAST FUNCTIONS AND BONE HEALING” (BLUE BLOOD BIOTECH CORP., priority 2019, published 2023).

The test system of one assay is mice. Kind of assay: Calvarial bone defect healing with DCI treatment (μCT, H&E). It counts as in vivo, mouse. The note with it: DCI alone. How it is done: FIGS. 8A-F show the effect of the TMD1 and TMD23 on calvarial bone healing. (8A) Cell migration, (8B) proliferation and (8C) mineralization of MG63 cells treated with the indicated dose of rTMD1. (8D) Calvarial bone healing of TM wild-type TM^wt/wt and TM domain 1 (TMD1)-deleted TM^LeD/LeD mice. (8E) μCT scanning and (8F) HE stain were used to evaluate the effect of vehicle, dichloroisocoumarin (DCI) and DCI plus rTMD23 or rTMD1 (100 μg/kg) on bone healing after a calvarial defect was created in mice. N=5 per group. Black bar=100 μm. White bar=1 mm. Dotted line indicates the section region. ***P<0.001.
Calvarial bone defect healing. Male mice were randomly assigned to designated groups. After anesthesia, a 4 mm-diameter defect on the calvaria was created and the wound was sutured. A combination of dichloroisocoumarin (DCI) (1 mM) or rTMD23 (0, 10, 100 μg/kg) and U0126 (20 μM) was subcutaneously injected once near the calvarial bone opening at week 1 after the surgery. Bone healing was monitored radiographically using μCT (Skyscan 1076, Antwerp, Belgium) and histologically at indicated time points (weeks 0 and 8) after the surgery. […] The quantification of the removed and regenerated bone volume (mm^3) performed by a 3D CT analyzer software (CTAN; Skyscan). […]

A further assay deals with MC3T3-E1 cells. The assay is described as follows: Proliferation assay (WST-1). The note with it: 1% FBS. It counts as cell-based. How it is done: Proliferation assay. MG63 cells were treated with various concentrations of rTMD23 for 1, 4, 7 days. The medium was replaced every 2-3 days. At the end, the amount of living cells in each well was measured with crystal violet assay. The cells in each well were washed by PBS twice right before staining. Crystal violet (0.5%, 300 μL) were added in each well for 15 min, followed by ddH2O rinse at least five times. Acetic acid (10%, 300 μL) were added to dissolute the crystal violet. Then, taking 100 μL/well into a 96 well plate to get an OD595 measurement. A proliferation assay on MC3T3-E1 cells with various concentrations of a variant of TMD23 was performed. Briefly, MC3T3-E1 cells in 96-well plates were treated with rTMD23NA at various concentrations for 1, 3, 5 days. The number of living cells in each well was measured with WST-1 reagent. The cells in each well were washed by DMEM medium twice right before staining with 100 μL of 10% WST-1 in DMEM. The absorption at A450 nm-A690 nm of each well was measured.
Human osteoblast-like cell line MG63 and osteoblast cell line MC3T3-E1 were used in the cell proliferation assay. Briefly, different concentrations of rTMD23 and rTMD23NA, which is a variant form of rTMD23, were respectively added to MG63 or MC3T3-E1 cell culture containing 1% FBS. […] The OD595 of the cell lysate in 10% acetic acid was measured to obtain the relative cell count in each well.

Another assay concerns protein C. The settings on record: cited from earlier work.

With `O=c1oc(Cl)c(Cl)c2ccccc12` [DCI, dichloroisocoumarin], the “regeneration of calvarial bone defect (μCT and H&E)” value in the assay on mice is given as “reduced regeneration of calvarial bone defect”. On to “rTMD23NA: recombinant TMD23 variant with two substitutions Asn364Ala and Asn391Ala, SEQ ID NO: 3 (274aa)”, for which the “cell proliferation (absorbance, WST-1)” value in the assay on MC3T3-E1 cells is reported as “enhance cell proliferation”. Further, in the assay with protein C, the “protein C activation activity” value was “little or no protein C activation activity”.
